This experiment addresses USP30 (Homo sapiens (Human), UniProt Q70CQ3). Nature of the experiment: In vitro biochemical assay for USP30 enzyme (Ubiquitin-Rhodamine110 cleavage, fluorescence). The note with it: 20 nM USP30, 15 min pre-incubation, 100 nM Ub rhodamine substrate, 2 hrs at room temperature. How it is done: In vitro biochemical assay for USP30 enzyme
The in vitro assay for USP30 evaluates the ability of a test compound to inhibit the activity of the enzyme to cleave ubiquitin from a substrate. Ubiquitin-rhodamine 110 is a quenched, fluorescent substrate for USP30. Cleavage of the amide bond between the C-terminal glycine of ubiquitin and rhodamine results in an increase in rhodamine fluorescence at 535 nm (Exc. 485 nm).
Incubation of the substrate in the presence or absence of USP30 was compared to confirm the deubiquitylating activity of USP30. The USP30 enzyme assay was performed by pre-incubating 20 nM of USP30 with varying concentration of a test compound in the assay buffer [PBS (pH 7.4), 1 mM DTT, 0.01% Tween 20, 0.01% BSA, DMSO final concentration is 1%] for 15 mins at room temperature, following which 100 nM of substrate Ub rhodamine was added and incubated at room temperature for 2 hrs and the plate was read for fluorescence intensity at Ex. 485 nm/535 nm in VICTOR X5 plate reader. The percent inhibition of activity of the enzyme is calculated by comparing counts in the presence and absence of compounds.
Test compounds were screened at various concentrations (10-12 tested concentrations) and dose response curves were generated was generated using GraphPad Prism software Version 7 (San Diego, Calif., USA) with non-linear regression curve fit for sigmoidal dose response (variable slope).
Sequence of USP30 (Q70CQ3 whole entry): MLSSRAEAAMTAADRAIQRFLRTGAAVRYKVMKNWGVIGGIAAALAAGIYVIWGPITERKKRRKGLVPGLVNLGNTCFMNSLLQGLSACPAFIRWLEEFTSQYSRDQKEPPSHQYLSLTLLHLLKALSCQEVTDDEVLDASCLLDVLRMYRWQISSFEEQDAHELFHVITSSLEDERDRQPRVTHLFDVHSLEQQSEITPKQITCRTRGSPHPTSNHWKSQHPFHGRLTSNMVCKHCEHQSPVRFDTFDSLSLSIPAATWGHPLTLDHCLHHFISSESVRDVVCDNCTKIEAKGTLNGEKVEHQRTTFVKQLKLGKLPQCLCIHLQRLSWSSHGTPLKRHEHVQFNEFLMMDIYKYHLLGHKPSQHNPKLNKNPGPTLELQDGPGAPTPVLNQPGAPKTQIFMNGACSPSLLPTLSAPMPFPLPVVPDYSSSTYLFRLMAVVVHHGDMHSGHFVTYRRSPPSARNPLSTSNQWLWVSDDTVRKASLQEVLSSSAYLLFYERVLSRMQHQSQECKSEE
For the compound `Cc1ccc(C[C@H](NC(=O)c2ccccc2)C(=O)Nc2cccc3c(S(=O)(=O)NC(C)(C)C)cccc23)cc1` [Compound 7m, (S)-N-(1-((5-(N-(tert-butyl)sulfamoyl)naphthalen-1-yl)amino)-1-oxo-3-(p-tolyl)propan-2-yl)benzamide], the IC50 (as a rule, the midpoint of a concentration-inhibition curve) is above 10 µM.

`CC(C)(C)NS(=O)(=O)c1cccc2c(NC(=O)[C@H](CC3CCCCC3)NC(=O)C3CCCCC3)cccc12` [Compound 19p, (S)-N-(1-((5-(N-(tert-butyl)sulfamoyl)naphthalen-1-yl)amino)-3-cyclohexyl-1-oxopropan-2-yl)cyclohexanecarboxamide] came in with an IC50 of 0.195 µM. For `CC(C)(C)NS(=O)(=O)c1ccc(NC(=O)[C@H](Cc2ccc(OC(F)(F)F)cc2)NC(=O)c2ccc(F)cc2)cc1` [Compound 19ae, (S)-N-(1-((4-(N-(tert-butyl)sulfamoyl)phenyl)amino)-1-oxo-3-(4-(trifluoromethoxy)phenyl)propan-2-yl)-4-fluorobenzamide], 3.6 µM corresponded to half-maximal inhibition (IC50). The figure for `COc1ccc(C[C@H](NC(=O)c2cncs2)C(=O)Nc2ccc(S(=O)(=O)NC(C)(C)C)cc2)cc1` [Compound 19w, (S)-N-(1-((4-(N-(tert-butyl)sulfamoyl)phenyl)amino)-3-(4-methoxyphenyl)-1-oxopropan-2-yl)thiazole-5-carboxamide] is above 10 µM. As for `COc1ccc(C(=O)N[C@@H](Cc2ccccc2)C(=O)Nc2cccc3c(S(=O)(=O)NC(C)(C)C)cccc23)cc1` [Compound 4v, (S)-N-(1-((5-(N-(tert-butyl)sulfamoyl)naphthalen-1-yl)amino)-1-oxo-3-phenylpropan-2-yl)-4-methoxybenzamide], the figure is 9 µM; as for `CC(C)(C)NS(=O)(=O)c1cccc2c(NC(=O)[C@@H](Cc3ccccc3)NC(=O)c3ccccc3)cccc12` [Compound 4a, (R)-N-(1-((5-(N-(tert-butyl)sulfamoyl)naphthalen-1-yl)amino)-1-oxo-3-phenylpropan-2-yl)benzamide], 0.248 µM. The compound `CC(C)(C)NS(=O)(=O)c1ccc(NC(=O)[C@H](Cc2ccc(-c3ccccc3)cc2)NC(=O)c2ccc(F)cc2)cc1` [Compound 19l, (S)-N-(3-([1,1′-biphenyl]-4-yl)-1-((4-(N-(tert-butyl)sulfamoyl)phenyl)amino)-1-oxopropan-2-yl)-4-fluorobenzamide] had an IC50 of 0.169 µM. This IC50 and that of the compound before are within 1.5-fold of each other. The figure for `CC(C)(C)NS(=O)(=O)c1ccc(NC(=O)[C@H](CC2CCOCC2)NC(=O)C2CCCCC2)cc1` [Compound 19ac, (S)-N-(1-((4-(N-(tert-butyl)sulfamoyl)phenyl)amino)-1-oxo-3-(tetrahydro-2H-pyran-4-yl)propan-2-yl)cyclohexanecarboxamide] is 0.071 µM; for `CC(C)(C)NS(=O)(=O)c1cccc2c(NC(=O)[C@H](Cc3ccccc3)NC(=O)c3ccccn3)cccc12` [Compound 4x, (S)-N-(1-((5-(N-(tert-butyl)sulfamoyl)naphthalen-1-yl)amino)-1-oxo-3-phenylpropan-2-yl)picolinamide] it is 0.17 µM. The figure for `CC(C)(C)NS(=O)(=O)c1ccc(NC(=O)[C@H](Cc2ccccc2)NC(=O)C2CCCCC2)cc1` [Compound 10b, (S)—N-(1-((4-(N-(tert-butyl)sulfamoyl)phenyl)amino)-1-oxo-3-phenylpropan-2-yl)cyclohexanecarboxamide] is 0.059 µM; for `CC(C)(C)NS(=O)(=O)c1cccc2c(NC(=O)[C@H](Cc3ccccc3)NC(=O)c3ccc(C#N)cc3)cccc12` [Compound 4r, (S)-N-(1-((5-(N-(tert-butyl)sulfamoyl)naphthalen-1-yl)amino)-1-oxo-3-phenylpropan-2-yl)-4-cyanobenzamide] it is 0.269 µM. The figure for `COc1ccc(C[C@H](NC(=O)c2ccncc2)C(=O)Nc2ccc(S(=O)(=O)NC(C)(C)C)cc2)cc1` [Compound 19ab, (S)-N-(1-((4-(N-(tert-butyl)sulfamoyl)phenyl)amino)-3-(4-methoxyphenyl)-1-oxopropan-2-yl)isonicotinamide] is 2.4 µM; for `CC(C)(C)NS(=O)(=O)c1ccc(NC(=O)[C@H](Cc2ccccc2)NC(=O)[C@@H]2CCCN2)cc1` [Compound 10i, (S)-N-((S)-1-((4-(N-(tert-butyl)sulfamoyl)phenyl)amino)-1-oxo-3-phenylpropan-2-yl)pyrrolidine-2-carboxamide] it is above 10 µM; for `CC(C)(C)NS(=O)(=O)c1cccc2c(NC(=O)[C@H](Cc3ccccc3)NC(=O)c3ccc(O)cc3)cccc12` [Compound 4w, (S)-N-(1-((5-(N-(tert-butyl)sulfamoyl)naphthalen-1-yl)amino)-1-oxo-3-phenylpropan-2-yl)-4-hydroxybenzamide] it is above 10 µM.

`CC(C)(C)NS(=O)(=O)c1ccc(NC(=O)[C@H](Cc2ccccc2)NC(=O)C2CCCCC2)cc1F` [Compound 19m, (S)-N-(1-((4-(N-(tert-butyl)sulfamoyl)-3-fluorophenyl)amino)-1-oxo-3-phenylpropan-2-yl)cyclohexanecarboxamide]: half-maximal inhibition (IC50) required 0.275 µM.

As to `CC(C)(C)NS(=O)(=O)c1ccc(NC(=O)[C@H](Cc2ccccc2)NC(=O)c2cccnn2)cc1` [Compound 10j, (S)-N-(1-((4-(N-(tert-butyl)sulfamoyl)phenyl)amino)-1-oxo-3-phenylpropan-2-yl)pyridazine-3-carboxamide], the IC50 was determined as 0.148 µM. Against the preceding compound, the IC50 is about 1.9-fold lower. In the case of `CC(C)(C)NS(=O)(=O)c1ccc(NC(=O)[C@H](CC2CCCCC2)NC(=O)c2ccc(C(F)(F)F)cc2)cc1` [Compound 14d, (S)-N-(1-((4-(N-(tert-butyl)sulfamoyl)phenyl)amino)-3-cyclohexyl-1-oxopropan-2-yl)-4-(trifluoromethyl)benzamide], the IC50 is above 10 µM. The figure for `CC(C)(C)NS(=O)(=O)c1cccc2c(NC(=O)[C@H](Cc3ccccc3)NC(=O)c3ccccc3)cccc12` [Compound 4b, (S)—N-(1-((5-(N-(tert-butyl)sulfamoyl)naphthalen-1-yl)amino)-1-oxo-3-phenylpropan-2-yl)benzamide] is 0.273 µM. Regarding `Cc1ccc(C(=O)N[C@@H](Cc2ccccc2)C(=O)Nc2cccc3c(S(=O)(=O)NC(C)(C)C)cccc23)cc1` [Compound 4i, (S)-N-(1-((5-(N-(tert-butyl)sulfamoyl)naphthalen-1-yl)amino)-1-oxo-3-phenylpropan-2-yl)-4-methylbenzamide], the IC50 is 2.5 µM. As for `CC(C)(C)NS(=O)(=O)c1ccc(NC(=O)[C@@H](Cc2ccccc2)NC(=O)C2CCCCC2)cc1` [Compound 10d, (R)-N-(1-((4-(N-(tert-butyl)sulfamoyl)phenyl)amino)-1-oxo-3-phenylpropan-2-yl)cyclohexanecarboxamide], the figure is 0.028 µM; as for `COc1ccc(C(=O)N[C@@H](Cc2cccs2)C(=O)Nc2ccc(S(=O)(=O)NC(C)(C)C)cc2)nc1` [Compound 19t, (S)-N-(1-((4-(N-(tert-butyl)sulfamoyl)phenyl)amino)-1-oxo-3-(thiophen-2-yl)propan-2-yl)-5-methoxypicolinamide], 1.04 µM; as for `CC(C)(C)NS(=O)(=O)c1ccc(NC(=O)[C@H](Cc2cccs2)NC(=O)c2ccccn2)cc1` [Compound 19s, (S)-N-(1-((4-(N-(tert-butyl)sulfamoyl)phenyl)amino)-1-oxo-3-(thiophen-2-yl)propan-2-yl)picolinamide], 0.2 µM. As for `CC(C)(C)NS(=O)(=O)c1ccc(NC(=O)[C@H](Cc2ccccc2)NC(=O)c2ccccc2)cc1` [Compound 10a, (S)-N-(1-((4-(N-(tert-butyl)sulfamoyl)phenyl)amino)-1-oxo-3-phenylpropan-2-yl)benzamide], the figure is above 10 µM; as for `CC(C)(C)NS(=O)(=O)c1cccc2c(NC(=O)[C@H](Cc3ccccc3)NC(=O)/C=C/c3ccccc3)cccc12` [Compound 19q, (S)-N-(1-((5-(N-(tert-butyl)sulfamoyl)naphthalen-1-yl)amino)-1-oxo-3-phenylpropan-2-yl)cinnamamide], above 10 µM. The figure for `CC(C)(C)NS(=O)(=O)c1ccc(NC(=O)[C@H](CC2CCCCC2)NC(=O)c2cccc(F)c2)cc1` [Compound 14g, (S)-N-(1-((4-(N-(tert-butyl)sulfamoyl)phenyl)amino)-3-cyclohexyl-1-oxopropan-2-yl)-3-fluorobenzamide] is 0.057 µM; for `CC(C)(C)NS(=O)(=O)c1ccc(NC(=O)[C@H](CO)NC(=O)C2CCCCC2)cc1` [Compound 19j, (S)-N-(1-((4-(N-(tert-butyl)sulfamoyl)phenyl)amino)-3-hydroxy-1-oxopropan-2-yl)cyclohexanecarboxamide] it is above 10 µM. Consider `C[C@@H](O)[C@H](NC(=O)C1CCCCC1)C(=O)Nc1ccc(S(=O)(=O)NC(C)(C)C)cc1` [Compound 19i, N-((2S,3R)-1-((4-(N-(tert-butyl)sulfamoyl)phenyl)amino)-3-hydroxy-1-oxobutan-2-yl)cyclohexanecarboxamide], for which the IC50 is above 10 µM. As for `CC(C)(C)NS(=O)(=O)c1ccc(NC(=O)[C@H](CC2CC2)NC(=O)C2CCCCC2)cc1` [Compound 19c, (S)-N-(1-((4-(N-(tert-butyl)sulfamoyl)phenyl)amino)-3-cyclopropyl-1-oxopropan-2-yl)cyclohexanecarboxamide], the figure is 0.81 µM.
